Reference: patent publication US7632833B2, “Mitotic kinesin inhibitors” (Merck & Co., Inc., priority 2004, dated 2009)
Read-outs that look alike come from different tables or passages of the source.

Target: T1, human poly-histidine tagged KSP motor domain (KSP(367H)) (Homo sapiens, UniProt P52732)
T1 construct: were used to amplify the motor domain and the neck linker region; made in house; host or cells: E. coli BL21 (DE3), vector pRSETa
T1 sequence (P52732 18-359 limits assumed): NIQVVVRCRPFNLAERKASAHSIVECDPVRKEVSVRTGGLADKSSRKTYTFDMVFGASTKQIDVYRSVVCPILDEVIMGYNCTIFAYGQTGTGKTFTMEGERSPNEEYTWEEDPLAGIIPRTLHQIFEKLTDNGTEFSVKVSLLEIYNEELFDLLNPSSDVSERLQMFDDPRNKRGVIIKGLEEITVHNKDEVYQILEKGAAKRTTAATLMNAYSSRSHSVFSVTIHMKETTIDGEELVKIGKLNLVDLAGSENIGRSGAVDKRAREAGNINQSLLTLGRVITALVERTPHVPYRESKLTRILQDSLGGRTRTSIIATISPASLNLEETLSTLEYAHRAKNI
Test: Kinesin ATPase In Vitro Assay
Format: biochemical
Procedure: I. Kinesin ATPase In Vitro Assay
The N-terminal primer 5′-[…] (SEQ. ID. NO.: 1) and the C-terminal primer 5′-[…] […] (SEQ. ID. NO.: 2)
were used to amplify the motor domain and the neck linker region. The PCR products were digested with AseI and XhoI, ligated into the NdeI/XhoI digestion product of pRSETa (Invitrogen) and transformed into E. coli BL21 (DE3).
Cells were grown at 37° C. to an OD600 of 0.5. After cooling the culture to room temperature expression of KSP was induced with 100 μM IPTG and incubation was continued overnight. Cells were pelleted by centrifugation and washed once with ice-cold PBS. Pellets were flash-frozen and stored −80° C.
Protein Purification: Cell pellets were thawed on ice and resuspended in lysis buffer (50 mM K-HEPES, pH 8.0, 250 mM KCl, 0.1% Tween, 10 mM imidazole, 0.5 mM Mg-ATP, 1 mM PMSF, 2 mM benzimidine, 1× complete protease inhibitor cocktail (Roche)). Cell suspensions were incubated with 1 mg/ml lysozyme and 5 mM β-mercaptoethanol on ice for 10 minutes, followed by sonication (3×30 sec). All subsequent procedures were performed at 4° C. Lysates were centrifuged at 40,000×g for 40 minutes. Supernatants were diluted and loaded onto an SP Sepharose column (Pharmacia, 5 ml cartridge) in buffer A (50 mM K-HEPES, pH 6.8, 1 mM MgCl2, 1 mM EGTA, 10 μM Mg-ATP, 1 mM DTT) and eluted with a 0 to 750 mM KCl gradient in buffer A. Fractions containing KSP were pooled and incubated with Ni-NTA resin (Qiagen) for one hour. The resin was washed three times with buffer B (Lysis buffer minus PMSF and protease inhibitor cocktail), followed by three 15-minute incubations and washes with buffer B. Finally, the resin was incubated and washed for 15 minutes three times with buffer C (same as buffer B except for pH 6.0) and poured into a column. KSP was eluted with elution buffer (identical to buffer B except for 150 mM KCl and 250 mM imidazole). KSP-containing fractions were pooled, made 10% in sucrose, and stored at −80° C.
Microtubules are prepared from tubulin isolated from bovine brain. Purified tubulin (>97% MAP-free) at 1 mg/ml is polymerized at 37° C. in the presence of 10 μM paclitaxel, 1 mM DTT, 1 mM GTP in BRB80 buffer (80 mM K-PIPES, 1 mM EGTA, 1 mM MgCl2 at pH 6.8). The resulting microtubules are separated from non-polymerized tubulin by ultracentrifugation and removal of the supernatant. The pellet, containing the microtubules, is gently resuspended in 10 μM paclitaxel, 1 mM DTT, 50 μg/ml ampicillin, and 5 μg/ml chloramphenicol in BRB80.
The kinesin motor domain is incubated with microtubules, 1 mM ATP (1:1 MgCl2: Na-ATP), and compound at 23° C. in buffer containing 80 mM K-HEPES (pH 7.0), […], 1 mM DTT, 1 mM MgCl2, and 50 mM KCl. The reaction is terminated by a 2-10 fold dilution with a final buffer composition of 80 mM HEPES and 50 mM EDTA. […] The reaction is incubated for 10 minutes at 23° C., and the absorbance of the phospho-molybdate complex is measured at 540 nm.

[1] = (3R,4R) enantiomeric form tested, kinesin motor domain with microtubules, 1 mM ATP, 23° C., free phosphate by quinaldine red/ammonium molybdate, read-out: IC50

Row | SMILES | IC50 | IC50 [1]
1 | CC(=O)C1=NN2c3cc(F)ccc3OC[C@H]2[C@H]1c1ccccc1 [Compound 1-8a, (3R,4R)-1-(8-Fluoro-3-phenyl-3a,4-dihydro-3H-pyrazolo[5,1-c][1,4]benzoxazin-2-yl)ethanone] | ≤ 30 µM | 
2 | CC(=O)C1=NN2c3cc(F)ccc3OC[C@H]2[C@@]1(CCCN1CCC(=O)N(C)CC1)c1ccccc1 [Compound 4-38, 1-{3-[(3R,4R)-2-acetyl-8-fluoro-3-phenyl-3a,4-dihydro-3H-pyrazolo[5,1-c][1,4]benzoxazin-3-yl]propyl}-4-methyl-1,4-diazepan-5-one] | ≤ 30 µM | 
3 | CC(=O)C1=NN2c3cc(F)ccc3OC[C@H]2[C@@]1(CCCN1CCN(C(N)=O)CC1)c1ccccc1 [Compound 4-27, 4-{3-[(3R,4R)-2-acetyl-8-fluoro-3-phenyl-3a,4-dihydro-3H-pyrazolo[5,1-c][1,4]benzoxazin-3-yl]propyl}piperazine-1-carboxamide] |  | ≤ 30 µM
4 | CNC(=O)N1CCN(CCC[C@]2(c3ccccc3)C(C(C)=O)=NN3c4cc(F)ccc4OC[C@H]32)CC1 [Compound 4-28, 4-{3-[(3R,4R)-2-acetyl-8-fluoro-3-phenyl-3a,4-dihydro-3H-pyrazolo[5,1-c][1,4]benzoxazin-3-yl]propyl}-N-methylpiperazine-1-carboxamide] |  | ≤ 30 µM

More lines, now with the values ahead:

Row | IC50 | IC50 [1] | SMILES
5 |  | ≤ 30 µM | CC(=O)C1=NN2c3cc(F)ccc3OC[C@H]2[C@@]1(CCCN1CCN(C(=O)CO)CC1)c1ccccc1 [Compound 4-25, 1-{(3R,4R)-8-fluoro-3-[3-(4-glycoloylpiperazin-1-yl)propyl]-3-phenyl-3a,4-dihydro-3H-pyrazolo[5,1-c][1,4]benzoxazin-2-yl}ethanone]
6 |  | ≤ 30 µM | COC(=O)CC(=O)N1CCN(CCC[C@]2(c3ccccc3)C(C(C)=O)=NN3c4cc(F)ccc4OC[C@H]32)CC1 [Compound 4-32, methyl 3-(4-{3-[(3R,4R)-2-acetyl-8-fluoro-3-phenyl-3a,4-dihydro-3H-pyrazolo[5,1-c][1,4]benzoxazin-3-yl]propyl}piperazin-1-yl)-3-oxopropanoate]
7 |  | ≤ 30 µM | CC(=O)C1=NN2c3cc(F)ccc3OC[C@H]2[C@@]1(CCCN1CCN(C(=O)c2cc(C)on2)CC1)c1ccccc1 [Compound 4-35, 1-[(3R,4R)-8-fluoro-3-(3-{4-[(5-methylisoxazol-3-yl)carbonyl]piperazin-1-yl}propyl)-3-phenyl-3a,4-dihydro-3H-pyrazolo[5,1-c][1,4]benzoxazin-2-yl]ethanone]
